{"source": "patent US8673906B2", "about": "“Chromenone derivatives” (AstraZeneca AB, priority 2010, dated 2014)"}
{"molecular_target": "PI3Kβ (Homo sapiens (Human), UniProt P42338)", "sequence (P42338 whole entry)": "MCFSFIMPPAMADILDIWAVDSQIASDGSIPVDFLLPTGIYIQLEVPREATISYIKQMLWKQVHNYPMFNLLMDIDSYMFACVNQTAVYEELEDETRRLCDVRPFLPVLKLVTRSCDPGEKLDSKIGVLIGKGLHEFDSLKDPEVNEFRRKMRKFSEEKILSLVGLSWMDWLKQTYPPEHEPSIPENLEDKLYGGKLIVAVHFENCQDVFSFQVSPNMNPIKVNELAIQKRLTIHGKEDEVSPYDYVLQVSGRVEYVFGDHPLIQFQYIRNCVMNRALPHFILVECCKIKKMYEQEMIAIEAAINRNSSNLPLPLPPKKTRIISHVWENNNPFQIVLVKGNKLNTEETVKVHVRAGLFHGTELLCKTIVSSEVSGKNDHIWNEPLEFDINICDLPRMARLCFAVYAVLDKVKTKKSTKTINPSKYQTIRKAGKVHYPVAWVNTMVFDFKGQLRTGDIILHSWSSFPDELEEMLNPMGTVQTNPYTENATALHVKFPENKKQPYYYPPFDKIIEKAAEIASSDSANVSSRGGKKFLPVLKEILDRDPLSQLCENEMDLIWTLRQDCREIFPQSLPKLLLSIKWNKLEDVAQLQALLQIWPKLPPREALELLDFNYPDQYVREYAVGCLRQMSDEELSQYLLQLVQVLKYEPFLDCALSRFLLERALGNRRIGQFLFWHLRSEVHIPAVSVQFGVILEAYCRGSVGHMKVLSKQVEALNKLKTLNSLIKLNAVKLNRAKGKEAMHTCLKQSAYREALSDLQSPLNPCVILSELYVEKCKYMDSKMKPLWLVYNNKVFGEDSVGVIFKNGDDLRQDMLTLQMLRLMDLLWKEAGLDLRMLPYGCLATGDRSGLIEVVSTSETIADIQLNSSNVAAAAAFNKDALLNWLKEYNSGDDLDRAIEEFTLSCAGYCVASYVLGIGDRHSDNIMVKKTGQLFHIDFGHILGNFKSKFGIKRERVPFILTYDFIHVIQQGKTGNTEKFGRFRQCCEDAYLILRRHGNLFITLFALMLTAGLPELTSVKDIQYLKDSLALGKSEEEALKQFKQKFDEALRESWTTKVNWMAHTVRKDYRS", "sequence (P27986 whole entry partner)": "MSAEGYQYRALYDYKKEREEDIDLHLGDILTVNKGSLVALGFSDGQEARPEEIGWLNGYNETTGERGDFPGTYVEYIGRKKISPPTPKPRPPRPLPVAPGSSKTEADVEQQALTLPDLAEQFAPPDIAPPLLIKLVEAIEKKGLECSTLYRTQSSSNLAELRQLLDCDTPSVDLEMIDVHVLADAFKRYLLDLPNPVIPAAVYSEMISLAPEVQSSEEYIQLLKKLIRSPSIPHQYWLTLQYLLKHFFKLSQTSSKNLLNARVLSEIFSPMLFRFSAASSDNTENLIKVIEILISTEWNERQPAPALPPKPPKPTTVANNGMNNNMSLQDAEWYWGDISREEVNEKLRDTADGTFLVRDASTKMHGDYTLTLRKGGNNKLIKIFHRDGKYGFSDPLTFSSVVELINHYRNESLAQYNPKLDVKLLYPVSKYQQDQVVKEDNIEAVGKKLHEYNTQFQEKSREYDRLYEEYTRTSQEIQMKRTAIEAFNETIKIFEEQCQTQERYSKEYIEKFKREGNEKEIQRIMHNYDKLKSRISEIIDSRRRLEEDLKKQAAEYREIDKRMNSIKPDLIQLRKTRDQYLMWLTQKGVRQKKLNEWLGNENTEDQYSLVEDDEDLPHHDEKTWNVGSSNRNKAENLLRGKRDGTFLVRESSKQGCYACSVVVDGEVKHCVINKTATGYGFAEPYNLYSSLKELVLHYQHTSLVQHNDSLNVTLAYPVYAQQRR", "assay": "In vitro enzyme inhibition assay (Kinase Glo based enzyme activity assay)", "type": "biochemical", "conditions": "Test (a), human recombinant enzyme; read-out: PI3Kβ inhibition, IC50", "procedure": "(§1) (a) In Vitro Enzyme Inhibition Assay\n(§2) The inhibition of PI3Kβ, PI3Kα, PI3Kγ and PI3Kδ was evaluated in a Kinase Glo based enzyme activity assay using human recombinant enzymes. The assay measures depletion of ATP after incubation with enzyme, PIP2 and ATP plus compound. ATP at the end of the reaction is detected by addition of Kinase Glo reagent, in this the Ultra Glo™ luciferase (Promega) uses the ATP as a substrate to catalyze the mono-oxygenation of luciferin and the generation of light. A direct relationship exists between the luminescence measured with the Kinase-Glo Plus Reagent and the amount of ATP remaining in a completed kinase reaction and luminescence is inversely related to kinase activity. Twelve different compound concentrations were tested and raw data from the inhibition of PI3 Kb, PI3Kα, PI3Kγ and PI3Kδ was plotted versus inhibitor concentration.\n(§3) Compounds in 100% DMSO were added to assay plates by acoustic dispensing. PI3Kβ was added in a Tris buffer (50 mM Tris pH7.4, 0.05% CHAPS, 2.1 mM DTT, and 10 mM MgCl2) and allowed to preincubate with compound for 20 minutes prior to addition of substrate solution containing PIP2 and ATP. The enzyme reaction was stopped after 80 minutes by the addition of Kinase Glo detection solution. Plates were left for 30 minutes at room temperature then read on a Pherastar Instrument (Luminescence ATP 384 program) setting gain on max well. The final concentration of DMSO, ATP and PIP2 in the assay were, 1%, 80 μM, and 80 μM respectively.\n(§4) IC50 values were calculated using a log curve fitting to a non-linear regression package, fitting raw data to inhibitor concentration.", "units": {"IC50": "nM"}}
{"smiles": "CC(Nc1cc(F)cc(F)c1)c1cc(C(=O)N2CC[C@H](O)C2)cc2c(=O)cc(N3CCOCC3)oc12", "note": "(single isomer, unassigned) [Example 2.08]", "IC50": 7}
{"smiles": "CC(Nc1ccc(F)c(F)c1)c1cc(C(=O)N(C)C)cc2c(=O)cc(N3CCOCC3)oc12", "note": "(single isomer, unassigned) [Example 3.03a, 8-(1-(3,4-difluorophenylamino)ethyl)-N,N-dimethyl-2-morpholino-4-oxo-4H-chromene-6-carboxamide]", "IC50": 649}
{"smiles": "CC(Nc1ccc(F)c(F)c1)c1cc(C(=O)N(C)C)cc2c(=O)cc(N3CCOCC3)oc12", "note": "(single isomer, unassigned) [Example 3.03b, 8-(1-(3,4-difluorophenylamino)ethyl)-N,N-dimethyl-2-morpholino-4-oxo-4H-chromene-6-carboxamide]", "IC50": 3}
{"smiles": "CC(Nc1cccc(Cl)c1F)c1cc(C(=O)N(C)C)cc2c(=O)cc(N3CCOCC3)oc12", "note": "(single isomer, unassigned) [Example 3.04a, 8-(1-(3-chloro-2-fluorophenylamino)ethyl)-N,N-dimethyl-2-morpholino-4-oxo-4H-chromene-6-carboxamide]", "IC50": 2250}
{"smiles": "CC(Nc1cccc(Cl)c1F)c1cc(C(=O)N(C)C)cc2c(=O)cc(N3CCOCC3)oc12", "note": "(single isomer, unassigned) [Example 3.04b, 8-(1-(3-chloro-2-fluorophenylamino)ethyl)-N,N-dimethyl-2-morpholino-4-oxo-4H-chromene-6-carboxamide]", "IC50": 3}
{"smiles": "CC(c1cc(C(=O)N2CCC(O)CC2)cc2c(=O)cc(N3CCOCC3)oc12)N(C)c1cc(F)cc(F)c1", "note": "(single isomer, unassigned) [Example 7.01a, 8-(1-((3,5-difluorophenyl)(methyl)amino)ethyl)-6-(4-hydroxypiperidine-1-carbonyl)-2-morpholino-4H-chromen-4-one]", "IC50": 8}
{"smiles": "CC(c1cc(C(=O)N2CCC(O)CC2)cc2c(=O)cc(N3CCOCC3)oc12)N(C)c1cc(F)cc(F)c1", "note": "(single isomer, unassigned) [Example 7.01b, 8-(1-((3,5-difluorophenyl)(methyl)amino)ethyl)-6-(4-hydroxypiperidine-1-carbonyl)-2-morpholino-4H-chromen-4-one]", "IC50": 4320}
{"smiles": "CC(Nc1cc(F)cc(F)c1)c1cc(C(=O)N(C)C)cc2c(=O)cc(N3CCO[C@H](C)C3)oc12", "note": "(single isomer, unassigned) [Example 9.01a]", "IC50": 17900}
{"smiles": "CC(Nc1cc(F)cc(F)c1)c1cc(C(=O)N(C)C)cc2c(=O)cc(N3CCO[C@H](C)C3)oc12", "note": "(single isomer, unassigned) [Example 9.01b]", "IC50": 3}
{"smiles": "CC(Nc1cc(F)cc(F)c1)c1cc(C(=O)N(C)C)cc2c(=O)cc(N3CCO[C@@H](C)C3)oc12", "note": "(single isomer, unassigned) [Example 9.02a]", "IC50": 22700}
{"smiles": "CC(Nc1cc(F)cc(F)c1)c1cc(C(=O)N(C)C)cc2c(=O)cc(N3CCO[C@@H](C)C3)oc12", "note": "(single isomer, unassigned) [Example 9.02b]", "IC50": 7}
{"smiles": "CC(Nc1cc(F)cc(F)c1F)c1cc(C(=O)N(C)C)cc2c(=O)cc(N3CCOCC3)oc12", "note": "(single isomer, unassigned; (-)) [Example 3.13b, (−)-N,N-dimethyl-2-morpholino-4-oxo-8-(1-(2,3,5-trifluorophenylamino)ethyl)-4H-chromene-6-carboxamide]", "IC50": 4}
{"smiles": "CC(Nc1cccc(F)c1)c1cc(C(=O)NCCN(C)C)cc2c(=O)cc(N3CCOCC3)oc12", "note": "(stereo not shown) [Example 1.01, N-(2-(dimethylamino)ethyl)-8-(1-(3-fluorophenylamino)ethyl)-2-morpholino-4-oxo-4H-chromene-6-carboxamide]", "IC50": 1}
{"smiles": "CC(Nc1ccccc1)c1cc(C(=O)NCCN(C)C)cc2c(=O)cc(N3CCOCC3)oc12", "note": "(stereo not shown) [Example 1.02, N-(2-(dimethylamino)ethyl)-2-morpholino-4-oxo-8-(1-(phenylamino)ethyl)-4H-chromene-6-carboxamide]", "IC50": 2}
{"smiles": "CC(Nc1cccc(Cl)c1F)c1cc(C(=O)NCCN(C)C)cc2c(=O)cc(N3CCOCC3)oc12", "note": "(stereo not shown) [Example 2.00, 8-(1-(3-chloro-2-fluorophenylamino)ethyl)-N-(2-(dimethylamino)ethyl)-2-morpholino-4-oxo-4H-chromene-6-carboxamide]", "IC50": 9}
{"smiles": "CC(Nc1ccc(F)cc1)c1cc(C(=O)N(C)C)cc2c(=O)cc(N3CCOCC3)oc12", "note": "(stereo not shown) [Example 2.01, 8-(1-(4-fluorophenylamino)ethyl)-N,N-dimethyl-2-morpholino-4-oxo-4H-chromene-6-carboxamide]", "IC50": 7}
{"smiles": "CC(Nc1ccc(F)cc1)c1cc(C(=O)N(C)CCN(C)C)cc2c(=O)cc(N3CCOCC3)oc12", "note": "(stereo not shown) [Example 2.02, N-(2-(dimethylamino)ethyl)-8-(1-(4-fluorophenylamino)ethyl)-N-methyl-2-morpholino-4-oxo-4H-chromene-6-carboxamide]", "IC50": 7}
{"smiles": "CC(Nc1ccc(F)c(Cl)c1)c1cc(C(=O)N2CCC(O)CC2)cc2c(=O)cc(N3CCOCC3)oc12", "note": "(stereo not shown) [Example 2.03, 8-(1-(3-chloro-4-fluorophenylamino)ethyl)-6-(4-hydroxypiperidine-1-carbonyl)-2-morpholino-4h-chromen-4-one]", "IC50": 6}
{"smiles": "CC(Nc1ccc(F)c(Cl)c1)c1cc(C(=O)N(C)CCO)cc2c(=O)cc(N3CCOCC3)oc12", "note": "(stereo not shown) [Example 2.04, 8-(1-(3-chloro-4-fluorophenylamino)ethyl)-N-(2-hydroxyethyl)-N-methyl-2-morpholino-4-oxo-4H-chromene-6-carboxamide]", "IC50": 4}
{"smiles": "CC(Nc1cccc(Cl)c1F)c1cc(C(=O)N2CCC(O)CC2)cc2c(=O)cc(N3CCOCC3)oc12", "note": "(stereo not shown) [Example 2.06, 8-(1-(3-chloro-2-fluorophenylamino)ethyl)-6-(4-hydroxypiperidine-1-carbonyl)-2-morpholino-4H-chromen-4-one]", "IC50": 6}
{"smiles": "CC(Nc1cc(F)cc(F)c1)c1cc(C(=O)N2CCOCC2)cc2c(=O)cc(N3CCOCC3)oc12", "note": "(stereo not shown) [Example 2.07, 8-(1-(3,5-difluorophenylamino)ethyl)-6-(morpholine-4-carbonyl)-2-morpholino-4H-chromen-4-one]", "IC50": 5}
{"smiles": "CC(c1cc(C(=O)NCCN(C)C)cc2c(=O)cc(N3CCOCC3)oc12)N(C)c1ccc(F)cc1", "note": "(stereo not shown) [Example 3.00, N-(2-(dimethylamino)ethyl)-8-(1-((4-fluorophenyl)(methyl)amino)ethyl)-2-morpholino-4-oxo-4H-chromene-6-carboxamide]", "IC50": 7}
{"smiles": "CC(c1cc(C(=O)N(C)CCN(C)C)cc2c(=O)cc(N3CCOCC3)oc12)N(C)c1ccc(F)cc1", "note": "(stereo not shown) [Example 3.02, N-(2-(dimethylamino)ethyl)-8-(1-((4-fluorophenyl)(methyl)amino)ethyl)-N-methyl-2-morpholino-4-oxo-4H-chromene-6-carboxamide]", "IC50": 11}
{"smiles": "CC(Nc1ccc(F)c(Cl)c1)c1cc(C(=O)N(C)C)cc2c(=O)cc(N3CCOCC3)oc12", "note": "(stereo not shown) [Example 3.05, 8-(1-(3-chloro-4-fluorophenylamino)ethyl)-N,N-dimethyl-2-morpholino-4-oxo-4H-chromene-6-carboxamide]", "IC50": 6}
{"smiles": "CC(c1cc(C(=O)N(C)C)cc2c(=O)cc(N3CCOCC3)oc12)N(C)c1ccc(F)c(Cl)c1", "note": "(stereo not shown) [Example 3.08, 8-(1-((3-chloro-4-fluorophenyl)(methyl)amino)ethyl)-N,N-dimethyl-2-morpholino-4-oxo-4H-chromene-6-carboxamide]", "IC50": 11}
{"smiles": "CC(Nc1cccc(Cl)c1)c1cc(C(=O)N(C)C)cc2c(=O)cc(N3CCOCC3)oc12", "note": "(stereo not shown) [Example 3.09, 8-(1-(3-chlorophenylamino)ethyl)-N,N-dimethyl-2-morpholino-4-oxo-4H-chromene-6-carboxamide]", "IC50": 4}
{"smiles": "CC(Nc1cccc(F)c1F)c1cc(C(=O)N(C)C)cc2c(=O)cc(N3CCOCC3)oc12", "note": "(stereo not shown) [Example 3.10, 8-(1-(2,3-difluorophenylamino)ethyl)-N,N-dimethyl-2-morpholino-4-oxo-4H-chromene-6-carboxamide]", "IC50": 4}
{"smiles": "CC(Nc1cc(F)cc(F)c1F)c1cc(C(=O)N(C)C)cc2c(=O)cc(N3CCOCC3)oc12", "note": "(stereo not shown) [Example 3.13, N,N-dimethyl-2-morpholino-4-oxo-8-(1-(2,3,5-trifluorophenylamino)ethyl)-4H-chromene-6-carboxamide]", "IC50": 6}
{"smiles": "CC(Nc1cc(F)ccc1F)c1cc(C(=O)N(C)C)cc2c(=O)cc(N3CCOCC3)oc12", "note": "(stereo not shown) [Example 3.15, 8-(1-(2,5-difluorophenylamino)ethyl)-N,N-dimethyl-2-morpholino-4-oxo-4H-chromene-6-carboxamide]", "IC50": 10}
{"smiles": "Cc1cc(F)cc(NC(C)c2cc(C(=O)N(C)C)cc3c(=O)cc(N4CCOCC4)oc23)c1", "note": "(stereo not shown) [Example 3.16, 8-(1-(3-fluoro-5-methylphenylamino)ethyl)-N,N-dimethyl-2-morpholino-4-oxo-4H-chromene-6-carboxamide]", "IC50": 5}
{"molecular_target": "PI3Kβ (Homo sapiens (Human), UniProt P42338)", "assay": "In vitro enzyme inhibition assay (Kinase Glo based enzyme activity assay)", "type": "biochemical", "conditions": "mean IC50 value calculated from a larger number of replicates; read-out: PI3Kβ inhibition, IC50 (value in brackets)", "procedure": "as §1, §2, §3, §4", "units": {"IC50": "nM"}}
{"smiles": "CC(Nc1cccc(F)c1)c1cc(C(=O)N(C)C)cc2c(=O)cc(N3CCOCC3)oc12", "note": "(stereo not shown) [Example 3.12, 8-(1-(3-fluorophenylamino)ethyl)-N,N-dimethyl-2-morpholino-4-oxo-4H-chromene-6-carboxamide]", "IC50": 5}
